{"source": "patent US6638960B2", "about": "“Halogenobenzimidazoles and their use as microbicides” (Bayer Aktiengesellschaft, priority 1995, dated 2003)"}
{"test_system": "not given", "assay": "not given", "details": "not given", "units": {"melting point": "°C"}}
{"smiles": "Cc1noc(C)c1S(=O)(=O)n1c(Br)nc2cc3c(cc21)OC(F)(F)O3", "melting point": "130 to 134"}
{"smiles": "FC1(F)Oc2cc3nc(Br)[nH]c3cc2OC1(F)F", "melting point": "170 to 174"}
{"smiles": "Clc1nc2cc3c(cc2[nH]1)OCCO3", "melting point": 150}
{"smiles": "FC1(F)Oc2cc3nc[nH]c3cc2OC1(F)F", "melting point": "70 to 74"}
{"test_system": "Plasmopara viticola", "assay": "Plasmopara test (vines)/protective", "format": "in vivo", "details": "50 ppm active compound; vines sprayed protectively; evaluated 6 days after inoculation; 100% = no disease", "units": {"Efficacy in % based on the untreated control at an active compound concentration of 50 ppm": "%"}}
{"smiles": "Cc1noc(C)c1S(=O)(=O)n1c(Br)nc2cc3c(cc21)OC(F)(F)O3", "note": "[drawing 114]", "Efficacy in % based on the untreated control at an active compound concentration of 50 ppm": 99}
{"smiles": "Cc1noc(C)c1S(=O)(=O)n1c(Br)nc2cc3c(cc21)OC(F)(F)C(F)(F)O3", "note": "[drawing 115]", "Efficacy in % based on the untreated control at an active compound concentration of 50 ppm": 93}
{"smiles": "Cc1noc(C)c1S(=O)(=O)n1c(Cl)nc2cc3c(cc21)OC(F)(F)O3", "note": "[drawing 118]", "Efficacy in % based on the untreated control at an active compound concentration of 50 ppm": 100}
{"smiles": "Cc1noc(C)c1S(=O)(=O)n1c(Cl)nc2ccc(Sc3ccccc3)cc21", "note": "[drawing 119]", "Efficacy in % based on the untreated control at an active compound concentration of 50 ppm": 100}
{"test_system": "Phytophthora infestans", "assay": "whole plant or invertebrate", "format": "in vivo", "details": "in Solanum lycopersicum, 72 h, read-out: Efficacy in % based on the untreated control at an active compound concentration of 50 ppm", "units": {"pest or weed control at 50 ppm": "%"}}
{"smiles": "CN(C)S(=O)(=O)n1c(Br)nc2cc3c(cc21)OC(F)(F)C(F)(F)O3", "pest or weed control at 50 ppm": 86}
{"smiles": "COc1ccc2c(c1)nc(Cl)n2S(=O)(=O)c1c(C)noc1C", "pest or weed control at 50 ppm": 96}
{"smiles": "Cc1onc(N)c1S(=O)(=O)n1c(Br)nc2cc3c(cc21)OC(F)(F)O3", "pest or weed control at 50 ppm": 95}
{"smiles": "Cc1noc(C)c1S(=O)(=O)n1c(Cl)nc2ccccc21", "pest or weed control at 50 ppm": 99}
{"smiles": "Cc1onc(N)c1S(=O)(=O)n1c(Cl)nc2cc3c(cc21)OC(F)(F)C(F)(F)O3", "pest or weed control at 50 ppm": 97}
{"smiles": "Cc1noc(C)c1S(=O)(=O)n1c(Br)nc2cc(Cl)c(Cl)cc21", "pest or weed control at 50 ppm": 95}
{"smiles": "Cc1noc(C)c1S(=O)(=O)n1c(Br)nc2cc3c(cc21)OC(F)(F)O3", "note": "[drawing 100]", "pest or weed control at 50 ppm": 99}
{"smiles": "Cc1noc(C)c1S(=O)(=O)n1c(Br)nc2cc3c(cc21)OC(F)(F)C(F)(F)O3", "note": "[drawing 101]", "pest or weed control at 50 ppm": 97}
{"smiles": "Cc1noc(C)c1S(=O)(=O)n1c(Cl)nc2cc3c(cc21)OC(F)(F)O3", "note": "[drawing 109]", "pest or weed control at 50 ppm": 99}
{"smiles": "Cc1noc(C)c1S(=O)(=O)n1c(Cl)nc2ccc(Sc3ccccc3)cc21", "note": "[drawing 110]", "pest or weed control at 50 ppm": 99}
